Tested on: SEM cells
Assay: cell viability relative to DMSO control; higher = less cytotoxic
Details: 48 h
Procedure, shortened: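 Viability is a per-plate percentage relative to DMSO wells, with cell-free wells as background. CellTiter-Glo One luminescence was read after 48 h at 37°C on 1536-well plates (5 μl) of NOMO1 or SEM (500 cells/well) or P12-Ichikawa (1000 cells/well) leukemia cells. The cells had been adapted for at least four passages in each medium and pin-dosed with library compounds in DMSO from 47 μM to 0.79 nM in 11 threefold steps.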

[1] = HPLM + 10% dialyzed FBS, 0.000781 µM
[2] = HPLM + 10% dialyzed FBS, 0.00234 µM
[3] = HPLM + 10% dialyzed FBS, 0.00702 µM
[4] = HPLM + 10% dialyzed FBS, 0.0211 µM
[5] = HPLM + 10% dialyzed FBS, 0.0632 µM
[6] = HPLM + 10% dialyzed FBS, 0.19 µM
[7] = HPLM + 10% dialyzed FBS, 0.569 µM
[8] = HPLM + 10% dialyzed FBS, 1.71 µM
[9] = HPLM + 10% dialyzed FBS, 5.12 µM
[10] = HPLM + 10% dialyzed FBS, 15.4 µM
[11] = HPLM + 10% dialyzed FBS, 46.1 µM
[12] = RPMI 5 mM glucose + 10% FBS, 0.000781 µM
[13] = RPMI 5 mM glucose + 10% FBS, 0.00234 µM
[14] = RPMI 5 mM glucose + 10% FBS, 0.00702 µM
[15] = RPMI 5 mM glucose + 10% FBS, 0.0211 µM
[16] = RPMI 5 mM glucose + 10% FBS, 0.0632 µM
[17] = RPMI 5 mM glucose + 10% FBS, 0.19 µM
[18] = RPMI 5 mM glucose + 10% FBS, 0.569 µM
[19] = RPMI 5 mM glucose + 10% FBS, 1.71 µM
[20] = RPMI 5 mM glucose + 10% FBS, 5.12 µM
[21] = RPMI 5 mM glucose + 10% FBS, 15.4 µM
[22] = RPMI 5 mM glucose + 10% FBS, 46.1 µM
[23] = RPMI 5 mM glucose + 10% dialyzed FBS, 0.000781 µM
[24] = RPMI 5 mM glucose + 10% dialyzed FBS, 0.00234 µM
[25] = RPMI 5 mM glucose + 10% dialyzed FBS, 0.00702 µM
[26] = RPMI 5 mM glucose + 10% dialyzed FBS, 0.0211 µM
[27] = RPMI 5 mM glucose + 10% dialyzed FBS, 0.0632 µM
[28] = RPMI 5 mM glucose + 10% dialyzed FBS, 0.19 µM
[29] = RPMI 5 mM glucose + 10% dialyzed FBS, 0.569 µM
[30] = RPMI 5 mM glucose + 10% dialyzed FBS, 1.71 µM
[31] = RPMI 5 mM glucose + 10% dialyzed FBS, 5.12 µM
[32] = RPMI 5 mM glucose + 10% dialyzed FBS, 15.4 µM
[33] = RPMI 5 mM glucose + 10% dialyzed FBS, 46.1 µM

| SMILES | cell viability [1] | cell viability [2] | cell viability [3] | cell viability [4] | cell viability [5] | cell viability [6] | cell viability [7] | cell viability [8] | cell viability [9] | cell viability [10] | cell viability [11] | cell viability [12] | cell viability [13] | cell viability [14] | cell viability [15] | cell viability [16] | cell viability [17] | cell viability [18] | cell viability [19] | cell viability [20] | cell viability [21] | cell viability [22] | cell viability [23] | cell viability [24] | cell viability [25] | cell viability [26] | cell viability [27] | cell viability [28] | cell viability [29] | cell viability [30] | cell viability [31] | cell viability [32] | cell viability [33] |
| --- | --- | --- | --- | --- | --- | --- | --- | --- | --- | --- | --- | --- | --- | --- | --- | --- | --- | --- | --- | --- | --- | --- | --- | --- | --- | --- | --- | --- | --- | --- | --- | --- | --- |
| COC[C@H](c1ccc(C(F)(F)F)cc1)N1CCN(C2(C)CCN(C(=O)c3c(C)ncnc3C)CC2)C[C@H]1C.O=C(O)/C=C\C(=O)O | 80.5% | 98.2% | 105% | 93.5% | 90% | 104% | 90.2% | 92% | 99.8% | 95.4% | 61.8% | 66% | 94.5% | 82.9% | 97.5% | 85.6% | 87.6% | 84.5% | 99.6% | 92.4% | 83.8% | 59.6% | 85.2% | 93.2% | 97.1% | 108% | 88.6% | 97.3% | 103% | 104% | 84% | 98% | 65.8% |
| Nc1ncnc2ccccc12 | 83.3% | 87.9% | 93.9% | 18.9% | 97% | 97.1% | 109% | 91.5% | 90.5% | 93.4% | 99.5% | 97.9% | 98.7% | 118% | 13.2% | 123% | 102% | 96.9% | 123% | 99.1% | 122% | 107% | 73.9% | 76.3% | 89.6% | 16.7% | 94.4% | 86.2% | 101% | 98.6% | 91.4% | 97.6% | 99.6% |
| COC1=CC=CC(=C1N)\C2=C\C(=O)C3=C(O2)C=CC=C3 | 99.8% | 123% | 124% | 130% | 129% | 146% | 140% | 145% | 148% | 145% | 156% | 119% | 112% | 120% | 121% | 136% | 136% | 161% | 143% | 141% | 177% | 144% | 106% | 111% | 134% | 134% | 128% | 136% | 145% | 164% | 149% | 160% | 155% |
| CC(C)c1cc(C(=O)N2Cc3ccc(CN4CCN(C)CC4)cc3C2)c(O)cc1O | – | – | – | – | – | – | – | – | – | – | – | 104% | 105% | 107% | 17.8% | 112% | 107% | 31.1% | 23.5% | 21.5% | 23.1% | 18.3% | 125% | 120% | 120% | 20.5% | 106% | 99.9% | 47.2% | 32.4% | 29.8% | 28.8% | 25.9% |
| C[C@]12CC[C@@H]3c4ccc(O)cc4CC[C@H]3[C@@H]1C[C@@H](O)[C@@H]2O | 105% | 116% | 108% | 119% | 113% | 121% | 113% | 116% | 113% | 105% | 91.3% | 86.9% | 83.6% | 97.3% | 95.6% | 91.5% | 89.3% | 91.8% | 79.7% | 90.9% | 82.6% | 66.4% | 127% | 120% | 114% | 128% | 129% | 115% | 126% | 106% | 112% | 116% | 92.4% |
| CCN(CC)CCCCNc1ncc2c(n1)N(C)C(=O)N(c1c(Cl)c(OC)cc(OC)c1Cl)C2 | 99.2% | 110% | 110% | 111% | 119% | 111% | 117% | 114% | 99.2% | 48.3% | 11.9% | 109% | 112% | 117% | 125% | 119% | 106% | 126% | 109% | 104% | 44.4% | 13.2% | 125% | 118% | 107% | 114% | 116% | 116% | 129% | 104% | 101% | 52.3% | 16.9% |
| COc1ccc(C2Sc3ccccc3N(CCN(C)C)C(=O)C2OC(C)=O)cc1 (stereo not drawn) | 99.2% | 111% | 106% | 115% | 113% | 117% | 115% | 112% | 106% | 112% | 108% | 113% | 109% | 86% | 99.4% | 103% | 111% | 111% | 105% | 99.2% | 110% | 69% | 87.2% | 112% | 99.6% | 101% | 107% | 115% | 107% | 109% | 124% | 95.5% | 85.8% |
| ClC1=CC\2=C(NC(=O)\C(=C2N[C@@H]3CN4CCC3CC4)C5=NC6=C([NH]5)C=CC=C6)C=C1 | 116% | 98.7% | 102% | 89.2% | 53.3% | 27.7% | 24.2% | 21% | 8.58% | 3.33% | 5.63% | 95.8% | 87.5% | 83.9% | 71% | 67.4% | 22.8% | 16.2% | 11.2% | 6.87% | 2.16% | 2.19% | 99.5% | 108% | 98% | 86.8% | 63.2% | 25.4% | 19.1% | 15% | 8.88% | 2.81% | 3.39% |

Reference: the supplement of paper PMC11451515
